Source: US11827543B2, “Method for continuous supply of superoxide-containing peracetate oxidant solution” (Clean Chemistry, Inc., priority 2014, dated 2023)

What was measured:
bacteria = test: ATP concentration (LuminUltra metabolic ATP measurement) in oxidant-treated water; format: cell-based
[1] = Jar test water parameters (hardness, calcium, magnesium, chloride, sodium, aluminum, iron, TSS, turbidity); settings: produced water, Example 17; for Magnesium (mg/L as CaCO3): untreated 170; for Calcium (mg/L as CaCO3): untreated 1080; for Hardness (mg/L as CaCO3): untreated 1250
Procedure: The water sample was thoroughly mixed and 500 mL dispensed into 1 L beakers to conduct tests using a Phipps and Bird programmable jar tester. The jar tester was programmed for a rapid mix of high shear force at 295 rpm impeller speed for 1.25 minutes, followed by a low shear impeller speed of 25 rpm for 10 minutes to promote coalescence and floc formation. All tests were conducted at room temperature, 20-25° C. The 500 mL water samples were dosed with varying amounts of sodium peracetate oxidant solution during the rapid mix from an oxidant solution that was 2.1% wt/vol sodium peracetate (1.6% wt/vol measured as PAA). Also during the rapid mix the jar samples were dosed with 0.5 to 1 mg/L of an anionic polymer dispersion as a coalescence and floc aid.
Example 17: Oxidative clarification of suspended solids and metals. A produced water sample originating from the Denver-Julesburg basin formation in CO, USA contained suspended and dissolved solids, bacteria and up to about 2% salinity. The water sample was thoroughly mixed and 500 mL dispensed into 1 L beakers to conduct tests using a Phipps and Bird programmable jar tester. The jar tester was programmed for a rapid mix of high shear force at 295 rpm impeller speed for 1.25 minutes followed by a low shear impeller speed of 25 rpm for 20 minutes to promote floc formation and allow for pH and ORP monitoring prior to settling of solids. All tests were conducted at room temperature, 18-21° C. The 500 mL water samples were dosed with varying amounts of sodium peracetate oxidant solution during the rapid mix from an oxidant solution that was 2.2% wt/vol sodium peracetate (1.7% wt/vol measured as PAA). In some cases, during the rapid mix the jar samples were dosed with up to 5 mg/L of an anionic polymer dispersion as a floc aid.

pH of treated water = format: physicochemical
Procedure: (§1) Water parameters were measured by a variety of methods. The pH was measured using a high sodium electrode (Oakton model 35805-05) with three point calibration and automatic temperature correction. The ORP (oxidative-reductive potential) of solutions was measured using an Oakton model 35805-15 ORP probe calibrated to the standard hydrogen electrode (SHE) using Thermo/Orion ORP standard 967901. Sodium ion concentration was measured using a Cole-Parmer ion selective electrode, EW-27504-30, with two point calibration of a sodium standard solution of NaCl. Chloride ion concentration was measured using a Cole-Parmer ion selective electrode, SC-27504-08, with two point calibration of a chloride standard solution of NaCl. All measurements using HACH methods were measured using a HACH DR900 colorimeter. Calcium, magnesium and total hardness concentrations were measured using HACH method 8030. Sulfate concentration was measured using HACH method 10248. Aluminum concentration was measured using HACH method 8012. Iron concentration was measured using HACH method 10249 modified with a longer reaction time to minimize interferences from organic impurities. Total suspended solids (TSS) concentration was measured using HACH method 8006 modified for smaller volumes. Turbidity was measured using HACH method 8237. ATP (adenosine triphosphate) concentration was measured using the LuminUltra 2nd Generation metabolic ATP measurement technology with the LuminUltra Quench Gone-Organic Modified sampling method, a PhotonMaster Luminometer and LumiCalc software. Acid producing bacteria (ABP) and sulfate reducing bacteria (SRB) cell culture concentrations were measured with standard 1 mL serial dilutions using Intertek APB and SRB culture media, 1% salinity.

[2] = ORP (oxidative-reductive potential) measurement of solutions and treated water; format: physicochemical; settings: for ORP (mV vs SHE): early flowback water, Example 19, 1.7 mmol/L oxidant; for ORP (mV vs SHE), maximum: produced water
Procedure: Example 9: Hydrogen Peroxide Residual Concentration and interference. A sodium peracetate oxidant solution was produced according to the procedure in Example 4 and diluted to 2800 mg/L (28.5 mmol/L) with either distilled water, for clean water conditions, or tap water containing about 0.18 mg/L copper, which served as an activation catalyst. Some samples were spiked with 30 or 60 mg/L (0.88 or 1.76 mmol/L, respectively) hydrogen peroxide from a 1000 mg/L stock solution. […] The temperature of the samples was maintained at 25±2° C. with a heated water bath. The ORP response was monitored over time to observe the impact of adding low concentrations of hydrogen peroxide. The pH was measured using a high sodium electrode (Oakton model 35805-05) with three point calibration and automatic temperature correction. The ORP (oxidative-reductive potential) of solutions was measured using an Oakton model 35805-15 ORP probe calibrated to the standard hydrogen electrode (SHE) using Thermo/Orion ORP standard 967901.
as §1

[3] = system: acid producing bacteria (APB); test: Acid producing bacteria serial dilution culture (Intertek APB media); format: cell-based; settings: produced water, Example 17, 30 min contact, no grow back
Procedure: The water's color rapidly turned orange and the ORP increased to about 700 mV vs SHE. During the first 5 to 10 minutes of slow mixing there was some floc formation. After 20 minutes stirring was ceased and the flocculated solids were allowed to settle, however the water remained hazy orange. […] The ATP concentration was reduced by about 93% from the untreated water concentration and the bioassay results indicated at least 4 log reductions in acid producing and sulfate reducing bacteria relative to the untreated water's ATP concentration (approximately 1.8×10^6 microbial equivalents per mL).
as §1, with “ATP (adenosine triphosphate) concentration was measured using the LuminUltra 2nd Generation metabolic ATP measurement technology with the LuminUltra Quench Gone-Organic Modified sampling method, a PhotonMaster Luminometer and LumiCalc software.” left out

[4] = Gel breaking of guar gum mixture; settings: for Viscosity at 2 Hour Contact Time: 10 g/L guar gum, 35-40 °C
Procedure: Example 15: Gel Breaking ability for well squeeze to remove “polymer damage”. The use of the sodium peracetate oxidant formulation was tested for the depolymerization and break down of guar gum. […] The guar mixture was made by rapidly mixing 10 g/L food grade guar gum powder into a 10 g/L sodium chloride solution in distilled water. The blended mixture was heated to about 35-40° C. in a heated water bath for at least one hour to fully hydrate the guar. The mixture appeared translucent with fine, milky white suspended solids. […] The first was a control sample to which no oxidant was added. The remaining samples had increasing amounts of sodium peracetate oxidant added to them. The oxidant was prepared as described in Example 4 and the pH was adjusted to about 9.1 with sodium bisulfate before use. The oxidant was rapidly mixed with the guar mixture resulting in a pale yellow color. The mixtures were placed in a water bath at about 35-40° C. and the yellow color gradually faded away over the next hour. After two hours the samples were cooled to room temperature.

[5] = system: sulfate reducing bacteria (SRB); test: Sulfate reducing bacteria serial dilution culture (Intertek SRB media); format: cell-based; settings: produced water, Example 17, 30 min contact, no grow back
[6] = produced water, Example 17, 52 mg/L
[7] = produced water, Example 18, 0.30 mmol/L oxidant
[8] = Piceance produced water, pH 7.00, 22 °C, 500 mg/L initial dose
[9] = 29 mg/L, untreated >>10,000 cells/mL

CC(=O)O[O-].[Na+] [sodium peracetate oxidant, sodium peracetate]
rate of reduction of ATP concentration (bacteria; early flowback water, Example 19, 1.7 mmol/L, ATP at 10, 30 and 60 minutes contact time): The sodium peracetate oxidant treated flowback water had a slightly greater rate of reduction of ATP concentration than chlorine dioxide.
ATP reduction at 30 min CT (bacteria; produced water, Example 17, 29 mg/L): 99.0%
ATP reduction at 30 min CT (bacteria; produced water, Example 17, 29 mg/L plus 5 mg/L floc aid): 99.6%
ATP reduction at 30 min CT (bacteria; produced water, Example 17, 29 mg/L plus 5 mg/L floc aid, listed as Sodium Peracetate Oxidant): 99.6%
ATP (pg/mL), at 30 min CT (bacteria; produced water, Example 17, 29 mg/L plus 5 mg/L floc aid, untreated 135): 0.6 pg/mL
ATP reduction at 30 min CT (bacteria; produced water, Example 17, 29 mg/L, listed as Sodium Peracetate Oxidant): 99.0%
ATP (pg/mL), at 30 min CT (bacteria; produced water, Example 17, 29 mg/L, untreated 135): 1.4 pg/mL
ATP reduction at 30 min CT (bacteria; [6]): 99.3%
ATP reduction at 30 min CT (bacteria; produced water, Example 17, 52 mg/L, listed as Sodium Peracetate Oxidant): 99.3%
ATP (pg/mL), at 30 min CT (bacteria; produced water, Example 17, 52 mg/L, untreated 135): 0.9 pg/mL
ATP (pg/mL), at 30 min CT (bacteria; [7]): 1.4 pg/mL
ATP reduction at 30 min CT (bacteria; [7]): 99.0%
ATP (pg/mL), at 15 min CT (bacteria; produced water, Example 18, 0.30 mmol/L oxidant, untreated 135): 4.1 pg/mL
Magnesium (mg/L as CaCO3) ([1]; 29 mg/L plus 5 mg/L floc aid): 200 mg/L as CaCO3
Calcium (mg/L as CaCO3) ([1]; 29 mg/L plus 5 mg/L floc aid): 940 mg/L as CaCO3
Hardness (mg/L as CaCO3) ([1]; 29 mg/L plus 5 mg/L floc aid): 1140 mg/L as CaCO3
Magnesium (mg/L as CaCO3) ([1]; 52 mg/L): 200 mg/L as CaCO3
Calcium (mg/L as CaCO3) ([1]; 52 mg/L): 1020 mg/L as CaCO3
Hardness (mg/L as CaCO3) ([1]; 52 mg/L): 1220 mg/L as CaCO3
pH (pH of treated water; early flowback water, Example 19, 1.7 mmol/L oxidant, contact time 3 minutes): 6.83
pH (pH of treated water; early flowback water, Example 19, 1.7 mmol/L oxidant, contact time 13 minutes): 6.87
pH (pH of treated water; early flowback water, Example 19, 1.7 mmol/L oxidant, contact time 35 minutes): 6.88
pH (pH of treated water; early flowback water, Example 19, 1.7 mmol/L oxidant, contact time 90 minutes): 6.89
pH (pH of treated water; produced water (Denver-Julesburg), Example 17, 29 mg/L): 6.2
pH (pH of treated water; produced water, Example 17, 29 mg/L plus 5 mg/L floc aid (Polymer B-40)): 6.3
pH (pH of treated water; [6]): 5.9
pH (pH of treated water; [7]): 6.2
ORP, rapid initial increase ([2]; Piceance produced water, pH 7.00, 22 °C, 100 mg/L initial dose): ~800 mV vs SHE
ORP after decline ([2]; Piceance produced water, pH 7.00, 22 °C, 100 mg/L initial dose, after 120 minutes): about 470 mV
ORP, later level [2, 8]: about 1040 mV vs SHE
ORP, rapid initial increase [2, 8]: about 890 mV vs SHE
ORP ([2]; Piceance produced water, first 26 mg/L dose of sequential dosing): more than 800 mV vs SHE
ORP maximum ([2]; Piceance produced water, single dose 78 mg/L (60 mg/L as PAA)): 870 mV vs SHE
ORP ([2]; Piceance produced water, single dose 78 mg/L, in less than 60 minutes): below 600 mV vs SHE
ORP (mV vs SHE) ([2]; contact time 3 minutes): 701 mV vs SHE
ORP (mV vs SHE) ([2]; contact time 13 minutes): 581 mV vs SHE
ORP (mV vs SHE) ([2]; contact time 35 minutes): 446 mV vs SHE
ORP (mV vs SHE) ([2]; contact time 90 minutes): 420 mV vs SHE
ORP of water drawn from the frac tanks ([2]; frac on the fly make-up water, about 15 minute contact time): less than 500 mV
ORP (mV vs SHE), maximum ([2]; Example 17, 29 mg/L): over 700 mV vs SHE
ORP (mV vs SHE), maximum ([2]; Example 17, 29 mg/L plus 5 mg/L floc aid): over 700 mV vs SHE
ORP (mV vs SHE), maximum ([2]; Example 17, 29 mg/L plus 5 mg/L floc aid, listed as Sodium Peracetate Oxidant): 770 mV vs SHE
ORP (mV vs SHE), maximum ([2]; Example 17, 29 mg/L, listed as Sodium Peracetate Oxidant): 766 mV vs SHE
ORP (mV vs SHE), maximum ([2]; Example 17, 52 mg/L): over 800 mV vs SHE
ORP (mV vs SHE), maximum ([2]; Example 17, 52 mg/L, listed as Sodium Peracetate Oxidant): 809 mV vs SHE
ORP (mV vs SHE), maximum ([2]; Example 18, 0.30 mmol/L oxidant): 766 mV vs SHE
APB (cells/mL and log reduction) ([3]; 29 mg/L plus 5 mg/L floc aid): 5 log (no grow
APB (cells/mL and log reduction) [3, 9]: 5 log (no grow
APB (cells/mL and log reduction) ([3]; 52 mg/L): 5 log (no grow
Viscosity at 2 Hour Contact Time ([4]; oxidant conc. 65 mg/L): same as initial
Viscosity at 2 Hour Contact Time ([4]; oxidant conc. 220 mg/L): slightly reduced
Viscosity at 2 Hour Contact Time ([4]; oxidant conc. 440 mg/L): very reduced
preservation of guar mixture on standing at room temperature ([4]; about 65 mg/L oxidant, control lost viscosity overnight, biofilm after a week): retained its original viscosity and milky color for at least a week
SRB (cells/mL and log reduction) ([5]; 29 mg/L plus 5 mg/L floc aid): 5 log (no grow
SRB (cells/mL and log reduction) [5, 9]: 5 log (no grow
SRB (cells/mL and log reduction) ([5]; 52 mg/L): 5 log (no grow
